How the values were obtained:
[1] = system: soybean; assay: Test B pre/postemergence soybean; type: in vivo, Glycine max
Outline: (§1)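 Response is a visual 0-to-10 score relative to untreated plants, where 0 means no effect and 10 means complete control, taken twelve to sixteen days after application. Treatments went onto soil at planting and onto foliage of 1- to 4-leaf plants, using a surfactant-containing non-phytotoxic solvent.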

[2] = system: rape; assay: Test B pre/postemergence rape; type: in vivo, Brassica napus
Outline: as §1

[3] = system: purple nutsedge; assay: Test B pre/postemergence purple nutsedge; type: in vivo, Cyperus rotundus
Outline: as §1

[4] = system: wild oat; assay: Test B pre/postemergence wild oat; type: in vivo, Avena fatua
Outline: as §1

[5] = system: morningglory; assay: Test B pre/postemergence morningglory; type: in vivo, Ipomoea hederacea
Outline: as §1

[6] = system: giant foxtail; assay: Test B pre/postemergence giant foxtail; type: in vivo, Setaria faberii
Outline: as §1

[7] = system: corn; assay: Test B pre/postemergence corn; type: in vivo, Zea mays
Outline: as §1

[8] = system: crabgrass; assay: Test B pre/postemergence crabgrass; type: in vivo, Digitaria sanguinalis
Outline: as §1

[9] = system: duck salad; assay: Test B flood test duck salad; type: in vivo, Heteranthera limosa
Outline: (§2)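 Each value is a visual injury score relative to controls, with 10 meaning complete control and 0 no effect. Evaluation took place twelve to sixteen days after the 2-leaf-stage plants were treated and kept in the greenhouse.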

[10] = system: bamyardgrass; assay: Test B flood test barnyardgrass; type: in vivo, Echinochloa crus-galli
Outline: as §2

[11] = system: smallflower flatsedge; assay: Test B flood test smallflower flatsedge; type: in vivo, Cyperus difformis
Outline: as §2

[12] = system: pigweed; assay: Test B pre/postemergence pigweed; type: in vivo, Amaranthus retroflexus
Outline: as §1

[13] = system: rice; assay: Test B flood test rice; type: in vivo, Oryza sativa
Outline: as §2

[14] = system: surinam grass; assay: Test B pre/postemergence surinam grass; type: in vivo, Brachiaria decumbens
Outline: as §1

[15] = system: cocklebur; assay: Test B pre/postemergence cocklebur; type: in vivo, Xanthium strumarium
Outline: as §1

[16] = system: sugar beet; assay: Test B pre/postemergence sugar beet; type: in vivo, Beta vulgaris
Outline: as §1

[17] = Postemergence, Rate 62 g/ha, scale 0 to 10, 0 is no effect, 10 is complete control
[18] = Postemergence, Rate 250 g/ha, scale 0 to 10, 0 no effect, 10 complete control
[19] = Preemergence, Rate 31 g/ha, visual rating, scale 0 to 10 (0 no effect, 10 complete control)
[20] = Preemergence, Rate 62 g/ha, scale 0 to 10, 0 is no effect, 10 is complete control
[21] = Preemergence, Rate 125 g/ha, scale 0 to 10 (0 no effect, 10 complete control)
[22] = Preemergence, Rate 250 g/ha, scale of 0 to 10 where 0 is no effect and 10 is complete control
[23] = Rate 125 g/ha, Postemergence, scale 0 to 10, 0 no effect, 10 complete control
[24] = Rate 31 g/ha, Postemergence, scale 0 to 10
[25] = Rate 125 g/ha, Postemergence section (flood test species), scale 0 to 10, 0 no effect, 10 complete control
[26] = Rate 500 g/ha, Postemergence section of Table B, 0 to 10 scale (0 no effect, 10 complete control)
[27] = flood test, listed under Postemergence, Rate 250 g/ha, scale 0 to 10, 0 no effect, 10 complete control

## COc1ccc(-n2c(=O)on(C(=O)N(c3ccc(F)cc3)C(C)C)c2=O)c(OC)c1 [Compound 33]
[1]; [17]
  Soybean plant response rating: 2
[1]; [18]
  Soybean plant response rating: 3
[1]; [19]
  Soybean plant response rating: 0
[1]; [20]
  Plant response rating, Soybean: 0
[1]; [21]
  Plant response rating, Soybean: 0
[1]; [22]
  Plant response rating, Soybean: 0
[1]; [23]
  Soybean plant response rating: 3
[2]; [17]
  Rape plant response rating: 0
[2]; [18]
  Rape plant response rating: 3
[2]; [19]
  Rape plant response rating: 0
[2]; [20]
  Plant response rating, Rape: 0
[2]; [21]
  Plant response rating, Rape: 0
[2]; [22]
  Plant response rating, Rape: 0
[2]; [24]
  Rape plant response rating: 0
[2]; [23]
  Rape plant response rating: 0
[3]; [17]
  Nutsedge plant response rating: 0
[3]; [18]
  Nutsedge plant response rating: 0
[3]; [19]
  Nutsedge plant response rating: 0
[3]; [20]
  Plant response rating, Nutsedge: 0
[3]; [21]
  Plant response rating, Nutsedge: 0
[3]; [22]
  Plant response rating, Nutsedge: 0
[3]; [24]
  Nutsedge plant response rating: 0
[3]; [23]
  Nutsedge plant response rating: 0
[4]; [17]
  Wild oats plant response rating: 0
[4]; [18]
  Wild oats plant response rating: 1
[4]; [19]
  Wild oats plant response rating: 0
[4]; [21]
  Plant response rating, Wild oats: 2
[4]; [22]
  Plant response rating, Wild oats: 2
[4]; [23]
  Wild oats plant response rating: 0
[5]; [17]
  Morningglory plant response rating: 3
[5]; [18]
  Morningglory plant response rating: 9
[5]; [19]
  Morningglory plant response rating: 0
[5]; [20]
  Plant response rating, Morningglory: 0
[5]; [21]
  Plant response rating, Morningglory: 0
[5]; [22]
  Plant response rating, Morningglory: 1
[5]; [24]
  Morningglory plant response rating: 3
[5]; [23]
  Morningglory plant response rating: 8
[6]; [17]
  Giant foxtail plant response rating: 0
[6]; [18]
  Giant foxtail plant response rating: 3
[6]; [19]
  Giant foxtail plant response rating: 3
[6]; [20]
  Plant response rating, Giant foxtail: 4
[6]; [21]
  Plant response rating, Giant foxtail: 6
[6]; [22]
  Plant response rating, Giant foxtail: 9
[6]; [24]
  Giant foxtail plant response rating: 0
[6]; [23]
  Giant foxtail plant response rating: 1
[7]; [17]
  Corn plant response rating: 0
[7]; [18]
  Corn plant response rating: 0
[7]; [19]
  Corn plant response rating: 0
[7]; [20]
  Plant response rating, Corn: 0
[7]; [21]
  Plant response rating, Corn: 0
[7]; [22]
  Plant response rating, Corn: 0
[7]; [24]
  Corn plant response rating: 0
[7]; [23]
  Corn plant response rating: 0
[8]; [17]
  Crabgrass plant response rating: 1
[8]; [18]
  Crabgrass plant response rating: 2
[8]; [19]
  Crabgrass plant response rating: 3
[8]; [20]
  Plant response rating, Crabgrass: 3
[8]; [21]
  Plant response rating, Crabgrass: 3
[8]; [22]
  Plant response rating, Crabgrass: 7
[8]; [24]
  Crabgrass plant response rating: 0
[8]; [23]
  Crabgrass plant response rating: 2
[9]; [17]
  Ducksalad plant response rating: 0
[9]; [25]
  Ducksalad plant response rating: 0
[9]; [26]
  Ducksalad plant response rating: 0
[9]; [27]
  Ducksalad plant response rating: 0
[10]; [17]
  Barnyardgrass plant response rating: 0
[10]; [25]
  Barnyardgrass plant response rating: 0
[10]; [26]
  Barnyardgrass plant response rating: 6
[10]; [27]
  Barnyardgrass plant response rating: 3
[11]; [17]
  S. Flatsedge plant response rating: 0
[11]; [25]
  S. Flatsedge plant response rating: 0
[11]; [27]
  S. Flatsedge plant response rating: 2
[12]; [17]
  Redroot pigweed plant response rating: 0
[12]; [18]
  Redroot pigweed plant response rating: 3
[12]; [19]
  Redroot pigweed plant response rating: 0
[12]; [20]
  Plant response rating, Redroot pigweed: 0
[12]; [21]
  Plant response rating, Redroot pigweed: 0
[12]; [22]
  Plant response rating, Redroot pigweed: 0
[12]; [24]
  Redroot pigweed plant response rating: 0
[12]; [23]
  Redroot pigweed plant response rating: 2
[13]; [17]
  Rice plant response rating: 0
[13]; [25]
  Rice plant response rating: 0
[13]; [26]
  Rice plant response rating: 4
[13]; [27]
  Rice plant response rating: 2
[14]; [17]
  B. signalgrass plant response rating: 0
[14]; [18]
  B. signalgrass plant response rating: 1
[14]; [19]
  B. signalgrass plant response rating: 0
[14]; [20]
  Plant response rating, B. signalgrass: 0
[14]; [21]
  Plant response rating, B. signalgrass: 0
[14]; [22]
  Plant response rating, B. signalgrass: 7
[14]; [24]
  B. signalgrass plant response rating: 0
[14]; [23]
  B. signalgrass plant response rating: 0
[15]; [17]
  Cocklebur plant response rating: 0
[15]; [18]
  Cocklebur plant response rating: 6
[15]; [19]
  Cocklebur plant response rating: 0
[15]; [20]
  Plant response rating, Cocklebur: 0
[15]; [21]
  Plant response rating, Cocklebur: 0
[15]; [22]
  Plant response rating, Cocklebur: 0
[15]; [24]
  Cocklebur plant response rating: 0
[15]; [23]
  Cocklebur plant response rating: 0
[16]; [17]
  Sugarbeets plant response rating: 0
[16]; [18]
  Sugarbeets plant response rating: 6
[16]; [19]
  Sugarbeets plant response rating: 0
[16]; [20]
  Plant response rating, Sugarbeets: 0
[16]; [21]
  Plant response rating, Sugarbeets: 0
[16]; [22]
  Plant response rating, Sugarbeets: 0
[16]; [23]
  Sugarbeets plant response rating: 2

Source: US6737383B1, “Herbicidal oxadiazolidines” (priority 1999, dated 2004)
